Reference: US20140081017A1, “Histone Deacetylase Inhibitors for Enhancing Activity of Antifungal Agents” (METHYLGENE INC., priority 2012, published 2014)
Values after ≈ are worked out from the molar mass of the structure shown. Like-named read-outs stand apart in the source and are kept apart here.

What was measured:
C. glabrata = assay: Checkerboard FIC assay in combination with fluconazole (MIC alone and in combination, FICI); type: cell-based, Candida glabrata; details: for FICI of combination resulting in fluconazole MIC of: 2 ug/mL / FICI of combination resulting in fluconazole MIC of: 4 ug/mL / FICI of combination resulting in fluconazole MIC of: 8 ug/mL: FICI calculated using a fluconazole MIC of 16 μg/mL; for FICI of combination resulting in fluconazole MIC of: 2 ug/mL (value in parenthesis) / FICI of combination resulting in fluconazole MIC of: 4 ug/mL (value in parenthesis) / FICI of combination resulting in fluconazole MIC of: 8 ug/mL (value in parenthesis): FICI using a fluconazole MIC of 128 μg/mL; for MIC: Nakaseomyces glabratus; for Multiple of compound MIC to synergize fluconazole MIC to 2 ug/mL / Multiple of compound MIC to synergize fluconazole MIC to 4 ug/mL / Multiple of compound MIC to synergize fluconazole MIC to 8 ug/mL: concentration in combination as multiple of the compound's MIC alone; for Multiple of compound MIC to synergize fluconazole MIC to 2 ug/mL: fluconazole MIC 2 ug/mL; for Multiple of compound MIC to synergize fluconazole MIC to 4 ug/mL: fluconazole MIC 4 ug/mL; for Multiple of compound MIC to synergize fluconazole MIC to 8 ug/mL: fluconazole MIC 8 ug/mL; for Concentration of Methylgene compound to synergize fluconazole MIC to 2 ug/mL / Concentration of Methylgene compound to synergize fluconazole MIC to 4 ug/mL / Concentration of Methylgene compound to synergize fluconazole MIC to 8 ug/mL: in combination with fluconazole; for Concentration of Methylgene compound to synergize fluconazole MIC to 2 ug/mL: fluconazole MIC lowered to 2 ug/mL; for Concentration of Methylgene compound to synergize fluconazole MIC to 4 ug/mL: fluconazole MIC lowered to 4 ug/mL; for Concentration of Methylgene compound to synergize fluconazole MIC to 8 ug/mL: fluconazole MIC lowered to 8 ug/mL
In short: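 A fluconazole synergy checkerboard was run against C. glabrata in MOPS-buffered RPMI (pH 7.0) for about 48 h at 35 °C. Each agent was diluted 2-fold, with one row and one column holding each agent alone for MIC determination. FICI was calculated from these MICs, using a 0.5 McFarland inoculum diluted 1:100 per CLSI.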

Candida albicans = assay: Minimal Inhibitory Concentration (MIC) assay, broth microdilution per CLSI; type: cell-based; details: Candida albicans, read-out: Minimum Inhibitory Concentrations against Yeast Isolates, Candida albicans;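 also: two read times 24 hr and 48 hr of incubation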
In short: (§1)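 Yeasts incubated ~24-48 hr at 35°C in MOPS-buffered RPMI (0.165 M, pH 7.0) containing DMSO-dissolved compound, following CLSI microdilution. Inoculum: 0.5 McFarland, diluted 1:100. MIC read visually as lowest concentration inhibiting growth (prominent-decrease endpoint for fluconazole).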

Candida glabrata = assay: as above; type: cell-based; details: Nakaseomyces glabratus, read-out: Minimum Inhibitory Concentrations against Yeast Isolates, Candida glabrata;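 also: two read times 24 hr and 48 hr of incubation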
In short: as §1

Candida parapsilosis = assay: as above; type: cell-based; details: Lodderomyces parapsilosis, read-out: Minimum Inhibitory Concentrations against Yeast Isolates, Candida parapsilosis;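 also: two read times 24 hr and 48 hr of incubation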
In short: as §1

[1] = MIC of the example compound alone against C. glabrata in the checkerboard assay, approximately 48 hr, read-out: Methylgene MIC
[2] = test compound alone, C. glabrata, approx. 48 hr at 35° C., read-out: Compound MIC
[3] = 24 hr reading (first value of cell 24 hr/48 hr)
[4] = 48 hr reading (second value of cell 24 hr/48 hr)

FICI of combination resulting in fluconazole MIC of: 2 ug/mL (C. glabrata; C. glabrata)	FICI of combination resulting in fluconazole MIC of: 4 ug/mL (C. glabrata; C. glabrata)	FICI of combination resulting in fluconazole MIC of: 8 ug/mL (C. glabrata; C. glabrata)	FICI of combination resulting in fluconazole MIC of: 2 ug/mL (value in parenthesis) (C. glabrata; C. glabrata)	FICI of combination resulting in fluconazole MIC of: 4 ug/mL (value in parenthesis) (C. glabrata; C. glabrata)	FICI of combination resulting in fluconazole MIC of: 8 ug/mL (value in parenthesis) (C. glabrata; C. glabrata)	MIC (C. glabrata; [1])	MIC (C. glabrata; [2])	Multiple of compound MIC to synergize fluconazole MIC to 2 ug/mL (C. glabrata)	Multiple of compound MIC to synergize fluconazole MIC to 4 ug/mL (C. glabrata)	Multiple of compound MIC to synergize fluconazole MIC to 8 ug/mL (C. glabrata)	Concentration of Methylgene compound to synergize fluconazole MIC to 2 ug/mL (C. glabrata; C. glabrata)	Concentration of Methylgene compound to synergize fluconazole MIC to 4 ug/mL (C. glabrata; C. glabrata)	Concentration of Methylgene compound to synergize fluconazole MIC to 8 ug/mL (C. glabrata; C. glabrata)	MIC (Candida albicans; [3])	MIC (Candida albicans; [4])	MIC (Candida glabrata; [3])	MIC (Candida glabrata; [4])	MIC (Candida parapsilosis; [3])	MIC (Candida parapsilosis; [4])	Structure (SMILES)
0.375	0.375	0.625	0.266	0.156	0.188	8 µg/mL	8 µg/mL	(¼x)	(⅛x)	(⅛x)	2 µg/mL	1 µg/mL	1 µg/mL	> 64 µg/mL	> 64 µg/mL	> 64 µg/mL	> 64 µg/mL	> 64 µg/mL	> 64 µg/mL	COCCOCCOCCNC(=O)c1ccc(CCCCc2ccc(CC(=O)NO)cc2)cc1 [Example 11, 4-(4-(4-(2-(hydroxyamino)-2-oxoethyl)phenyl)butyl)-N-(2-(2-(2-methoxyethoxy)ethoxy)ethyl)benzamide]
0.313	0.250	0.375	0.266	0.156	0.188	16 µg/mL	16 µg/mL	(¼x)	(⅛x)	(⅛x)	4 µg/mL	2 µg/mL	2 µg/mL	> 64 µg/mL	> 64 µg/mL	4 µg/mL (≈ 7.86 µM)	16 µg/mL (≈ 31.5 µM)	> 64 µg/mL	> 64 µg/mL	COCCOCCOCCNS(=O)(=O)c1ccc(CCCCc2ccc(CC(=O)NO)cc2)cc1 [Example 12, N-hydroxy-2-(4-(4-(4-(N-(2-(2-(2-methoxyethoxy)ethoxy)ethyl)sulfamoyl)phenyl)butyl)phenyl)acetamide]
0.313	0.375	0.375	0.266	0.281	0.188	4 µg/mL	4 µg/mL	(¼x)	(¼x)	(⅛x)	1 µg/mL	1 µg/mL	0.5 µg/mL	8 µg/mL (≈ 23.3 µM)	16 µg/mL (≈ 46.6 µM)	2 µg/mL (≈ 5.82 µM)	4 µg/mL (≈ 11.6 µM)	16 µg/mL (≈ 46.6 µM)	> 16 µg/mL	COc1ccc(CCCCc2ccc(CC(=O)NO)cc2)cc1OC [Example 13, 2-(4-(4-(3,4-dimethoxyphenyl)butyl)phenyl)-N-hydroxyacetamide]
